In ChEMBL document CHEMBL5725503, “Heterocyclic compounds and methods for their use” (2017):

Target: T1, Type-2 angiotensin II receptor (Homo sapiens, UniProt P50052)
T1 sequence (P50052 whole entry): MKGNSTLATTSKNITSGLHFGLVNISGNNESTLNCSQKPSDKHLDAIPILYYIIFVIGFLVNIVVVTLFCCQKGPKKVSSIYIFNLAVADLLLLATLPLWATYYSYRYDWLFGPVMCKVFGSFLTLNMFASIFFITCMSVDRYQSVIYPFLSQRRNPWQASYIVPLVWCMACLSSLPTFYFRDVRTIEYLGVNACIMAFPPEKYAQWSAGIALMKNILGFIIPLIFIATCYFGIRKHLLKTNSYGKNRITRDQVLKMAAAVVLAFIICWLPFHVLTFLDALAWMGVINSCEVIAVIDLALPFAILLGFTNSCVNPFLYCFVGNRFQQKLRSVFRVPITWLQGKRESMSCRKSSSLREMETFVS
Assay: AT2 Receptor Binding Assay: 120 μL membrane ([…]) was incubated with 15 μL of [125I]-CGP42112A and 15 μL of compound at RT for 1.5 hrs.The binding reaction was stopped by rapid filtration through Unifilter GF/C plates (presoaked in 0.3% (v:v) BSA).Plate was washed three times with ice cold wash buffer.The filtration plates were dried at 37° C. overnight.50 μL of scintillation cocktail was added to each well.Radioactivity was determined using MicroBetaTriltuunicroplate scintillation counter.

## O=C(O)[C@@H]1CN(CC#Cc2ccc(F)cc2)CCN1C(=O)C(c1ccccc1)c1ccccc1
  IC50: 3.92 µM
